Each structure is given as a SMILES string.

Holding throughout (assay type): cell-based
In one test the target is Melanocortin receptor 5 (Homo sapiens, UniProt P33032). The test is described as follows: Displacement of [125I]NDP-alpha-MSH from cloned human MC5R expressed in HEK293 cell.
In test [1] the target is Melanocyte-stimulating hormone receptor (Homo sapiens, UniProt Q01726). Kind of test: Displacement of [125I]NDP-alpha-MSH from cloned human MC1R expressed in HEK293 cell.
The next test concerns the target Melanocortin receptor 4 (Homo sapiens, UniProt P32245). Kind of test: Displacement of [125I]NDP-alpha-MSH from cloned human MC4R expressed in HEK293 cells.
The target in another test is Melanocortin receptor 3 (Homo sapiens, UniProt P41968). Kind of test: Displacement of [125I]NDP-alpha-MSH from cloned human MC3R expressed in HEK293 cell.
Melanocortin receptor 3, sequence (P41968 whole entry): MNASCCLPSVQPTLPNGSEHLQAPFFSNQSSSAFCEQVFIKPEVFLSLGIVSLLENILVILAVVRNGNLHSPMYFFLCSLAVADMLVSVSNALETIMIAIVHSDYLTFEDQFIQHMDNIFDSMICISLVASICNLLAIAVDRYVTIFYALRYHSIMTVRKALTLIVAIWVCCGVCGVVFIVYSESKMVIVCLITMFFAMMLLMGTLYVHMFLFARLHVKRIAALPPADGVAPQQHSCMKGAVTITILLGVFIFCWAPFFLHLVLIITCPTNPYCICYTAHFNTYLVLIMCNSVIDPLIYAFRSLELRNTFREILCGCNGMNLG

Melanocortin receptor 5, sequence (P33032 whole entry): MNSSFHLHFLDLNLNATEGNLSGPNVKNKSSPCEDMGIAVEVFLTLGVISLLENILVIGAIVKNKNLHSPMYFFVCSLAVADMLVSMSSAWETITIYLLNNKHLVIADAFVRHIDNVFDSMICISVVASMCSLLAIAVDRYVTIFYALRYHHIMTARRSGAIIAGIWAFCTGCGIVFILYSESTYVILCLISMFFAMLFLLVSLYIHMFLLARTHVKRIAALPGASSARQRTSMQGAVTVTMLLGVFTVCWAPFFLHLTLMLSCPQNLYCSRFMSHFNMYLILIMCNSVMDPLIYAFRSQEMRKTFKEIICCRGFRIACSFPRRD
Melanocortin receptor 4, sequence (P32245 whole entry): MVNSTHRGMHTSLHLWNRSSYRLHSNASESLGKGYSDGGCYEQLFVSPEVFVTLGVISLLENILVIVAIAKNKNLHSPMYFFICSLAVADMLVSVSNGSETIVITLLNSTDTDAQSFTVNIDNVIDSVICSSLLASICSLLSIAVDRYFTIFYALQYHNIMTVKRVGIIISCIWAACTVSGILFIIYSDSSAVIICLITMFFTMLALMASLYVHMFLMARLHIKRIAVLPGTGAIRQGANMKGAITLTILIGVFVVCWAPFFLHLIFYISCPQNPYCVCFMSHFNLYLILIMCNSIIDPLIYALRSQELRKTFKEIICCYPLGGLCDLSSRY
Melanocyte-stimulating hormone receptor, sequence (Q01726 whole entry): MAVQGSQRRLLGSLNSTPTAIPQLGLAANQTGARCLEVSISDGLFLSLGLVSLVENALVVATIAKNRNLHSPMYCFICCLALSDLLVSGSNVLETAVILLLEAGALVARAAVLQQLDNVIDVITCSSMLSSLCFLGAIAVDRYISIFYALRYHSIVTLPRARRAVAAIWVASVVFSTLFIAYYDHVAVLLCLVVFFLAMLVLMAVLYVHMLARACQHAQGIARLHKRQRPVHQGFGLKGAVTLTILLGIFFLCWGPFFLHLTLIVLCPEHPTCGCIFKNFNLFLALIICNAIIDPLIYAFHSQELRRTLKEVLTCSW

As a reminder, the Ki is a measure of affinity in units of concentration, obtained from inhibition or displacement. The low end stands for tighter binding, the high end for weaker binding. With `CCN(CC)CC(c1ccccc1F)N1CCN(C(=O)[C@@H](Cc2ccc(Cl)cc2)NC(=O)c2cc3ccccc3cn2)CC1` (some centres undefined), the Ki on Melanocortin receptor 5 was found to be 0.92 µM; in test [1], 7 µM; at Melanocortin receptor 4, 0.0956 µM; on Melanocortin receptor 3, 1.4 µM.
The corresponding values for `CCN(CC)CC(c1ccccc1F)N1CCN(C(=O)[C@@H](Cc2ccc(Cl)cc2)NC(=O)[C@H]2Cc3ccccc3CN2)CC1` (some centres undefined) are 0.95 µM, 5.8 µM, 0.0406 µM and 7 µM.
For the molecule `CCN(CC)CC(c1ccccc1F)N1CCN(C(=O)[C@@H](Cc2ccc(Cl)cc2)NC(=O)CC2NCCc3ccccc32)CC1` (some centres undefined), the Ki on Melanocortin receptor 5 was 0.91 µM; in test [1] it was 3 µM; at Melanocortin receptor 4, 0.0104 µM; on Melanocortin receptor 3 it was 4.2 µM.
The corresponding values for `CCN(CC)CC(c1ccccc1F)N1CCN(C(=O)[C@@H](Cc2ccc(Cl)cc2)NC(=O)C2Cc3ccccc3C(C)(C)N2)CC1` (some centres undefined) are 0.42 µM, 7 µM, 0.0058 µM and 1.9 µM.
The corresponding values for `CCN(CC)CC(c1ccccc1F)N1CCN(C(=O)[C@@H](Cc2ccc(Cl)cc2)NC(=O)CC2NCc3ccccc32)CC1` (some centres undefined) are 1.2 µM, 6 µM, 0.0073 µM and 3.4 µM.
The corresponding values for `CCN(CC)CC(c1ccccc1F)N1CCN(C(=O)[C@@H](Cc2ccc(Cl)cc2)NC(=O)CC2c3ccccc3CN2C)CC1` (some centres undefined) are 2 µM, 8.6 µM, 0.0173 µM and 4.6 µM.
Consider `CCN(CC)CC(c1ccccc1F)N1CCN(C(=O)[C@@H](Cc2ccc(Cl)cc2)NC(=O)CC2(C)NCc3ccccc32)CC1` (some centres undefined), for which the Ki on Melanocortin receptor 5 came out at 1.4 µM; in test [1] it was 20 µM; on Melanocortin receptor 4, 0.0737 µM; at Melanocortin receptor 3, 16 µM.
For `CCN(CC)CC(c1ccccc1Cl)N1CCN(C(=O)[C@@H](Cc2ccc(Cl)cc2)NC(=O)CC2NCc3ccccc32)CC1` (stereo in doubt; 40a), at Melanocortin receptor 4, the affinity corresponds to a Ki of 0.178 µM.
Same read-out and setting: in the case of `CCN(CC)CC(c1ccccc1Cl)N1CCN(C(=O)[C@@H](Cc2ccc(Cl)cc2)NC(=O)CC2NCc3ccccc32)CC1` (stereo in doubt; 40b) it was 0.0181 µM; in that of `CCN(CC)CC(c1ccccc1Cl)N1CCN(C(=O)[C@@H](Cc2ccc(Cl)cc2)NC(=O)CC2NCc3ccccc32)CC1` (stereo in doubt; 41a), 0.107 µM; in that of `CCN(CC)CC(c1ccccc1Cl)N1CCN(C(=O)[C@@H](Cc2ccc(Cl)cc2)NC(=O)CC2NCc3ccccc32)CC1` (stereo in doubt; 41b), 0.0053 µM.
Take `CCN(CC)CC(c1ccccc1Cl)N1CCN(C(=O)[C@@H](Cc2ccc(Cl)cc2)NC(=O)CC2NCCc3ccccc32)CC1` (stereo in doubt; 42): the affinity on Melanocortin receptor 4, expressed as Ki, was 0.0302 µM. This Ki is about 5.7-fold higher than that of the molecule before.
Still for that read-out and setting: to `CCN(CC)CC(c1ccccc1Cl)N1CCN(C(=O)[C@@H](Cc2ccc(Cl)cc2)NC(=O)CC2NCCc3ccccc32)CC1` (stereo in doubt; 43) belongs 0.0064 µM.

The record behind these values is ChEMBL document CHEMBL1146993, “Synthesis and structure-activity relationships of novel dipeptides and reduced dipeptides as ligands for melanocortin subtype-4 receptor” (Bioorg Med Chem Lett, 2006).
